Measurements: US11912701B2, “Protein kinase inhibitors for promoting liver regeneration or reducing or preventing hepatocyte death” (HEPAREGENIX GMBH, priority 2018, dated 2024)
pIC50: −log10 of the molar value.

Assays:
[1] = molecular target: T1, MKK4 (Homo sapiens, UniProt P45985); assay: KINOMEscan competition binding assay, MKK4; conditions: residual percent of control binding (PoC) at 100 nM
T1 construct: S84/D399; host or cells: HEK-293
T1 sequence (P45985 84-399): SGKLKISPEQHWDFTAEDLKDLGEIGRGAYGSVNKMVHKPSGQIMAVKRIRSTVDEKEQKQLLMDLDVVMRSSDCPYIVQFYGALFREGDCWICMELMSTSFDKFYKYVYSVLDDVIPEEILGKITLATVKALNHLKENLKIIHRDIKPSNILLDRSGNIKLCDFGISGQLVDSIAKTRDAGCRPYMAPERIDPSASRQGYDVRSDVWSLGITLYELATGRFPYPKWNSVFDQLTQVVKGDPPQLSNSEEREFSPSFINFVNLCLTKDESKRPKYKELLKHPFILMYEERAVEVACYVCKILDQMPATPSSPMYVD
Outline: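 KINOMEscan competition of compound versus immobilized ligand for DNA-tagged MKK4 expressed in HEK-293 cells. Bound kinase was quantified by qPCR after elution.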

[2] = molecular target: T2, JNK1 (Homo sapiens, UniProt P45983); assay: 33PanQinase enzyme assay, JNK1; assay type: biochemical; design: purchased ProQinase GmbH, Freiburg, Germany (33PanQinase Assay Service); conditions: ratio IC50(JNK1)/IC50(MKK4)
Outline: (§1)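 Radiometric 33PanQinase format: kinase with substrate, ATP and compound (added in 10% DMSO stock) incubated 60 min at 30° C, stopped with 2% H3PO4, ^33Pi incorporation counted by scintillation. Single-concentration data given as % residual activity; IC50 by least-squares fit, with selectivity as IC50(off-target)/IC50(MKK4).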
Target sequence in this assay (P45983 whole entry): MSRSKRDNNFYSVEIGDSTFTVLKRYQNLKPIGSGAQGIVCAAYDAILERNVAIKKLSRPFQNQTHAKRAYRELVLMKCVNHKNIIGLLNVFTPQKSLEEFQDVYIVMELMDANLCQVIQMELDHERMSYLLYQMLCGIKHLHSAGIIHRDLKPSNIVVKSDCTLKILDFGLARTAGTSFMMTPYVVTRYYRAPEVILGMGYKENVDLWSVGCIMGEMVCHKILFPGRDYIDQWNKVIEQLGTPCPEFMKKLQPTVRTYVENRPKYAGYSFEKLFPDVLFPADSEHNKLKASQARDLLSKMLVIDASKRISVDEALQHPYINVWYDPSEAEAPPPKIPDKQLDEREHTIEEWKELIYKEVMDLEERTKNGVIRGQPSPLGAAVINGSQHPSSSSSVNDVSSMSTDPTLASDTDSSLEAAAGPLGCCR

[3] = molecular target: T3, MKK7 (Homo sapiens, UniProt O14733); assay: 33PanQinase enzyme assay, MKK7; assay type: biochemical; design: purchased ProQinase GmbH, Freiburg, Germany (33PanQinase Assay Service); conditions: ratio IC50(MKK7)/IC50(MKK4)
T3 sequence (O14733 1-419): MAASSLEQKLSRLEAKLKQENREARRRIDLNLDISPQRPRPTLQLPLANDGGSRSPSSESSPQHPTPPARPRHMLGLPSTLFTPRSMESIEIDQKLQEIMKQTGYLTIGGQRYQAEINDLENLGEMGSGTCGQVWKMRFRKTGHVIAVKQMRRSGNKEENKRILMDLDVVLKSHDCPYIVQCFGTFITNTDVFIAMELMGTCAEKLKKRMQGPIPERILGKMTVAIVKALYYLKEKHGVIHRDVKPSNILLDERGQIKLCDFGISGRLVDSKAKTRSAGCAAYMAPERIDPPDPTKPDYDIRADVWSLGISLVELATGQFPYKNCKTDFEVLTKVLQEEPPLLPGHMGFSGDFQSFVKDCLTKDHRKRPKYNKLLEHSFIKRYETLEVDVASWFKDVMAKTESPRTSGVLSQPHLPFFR
Outline: as §1

[4] = molecular target: T4, MKK4 (Homo sapiens, UniProt P45985); assay: 33PanQinase enzyme assay, MKK4; assay type: biochemical; conditions: assay 'IC50'; read-out: Potency MKK4 (IC50)
T4 construct: purchased ProQinase GmbH, Freiburg, Germany (33PanQinase Assay Service)
T4 sequence (P45985 1-399): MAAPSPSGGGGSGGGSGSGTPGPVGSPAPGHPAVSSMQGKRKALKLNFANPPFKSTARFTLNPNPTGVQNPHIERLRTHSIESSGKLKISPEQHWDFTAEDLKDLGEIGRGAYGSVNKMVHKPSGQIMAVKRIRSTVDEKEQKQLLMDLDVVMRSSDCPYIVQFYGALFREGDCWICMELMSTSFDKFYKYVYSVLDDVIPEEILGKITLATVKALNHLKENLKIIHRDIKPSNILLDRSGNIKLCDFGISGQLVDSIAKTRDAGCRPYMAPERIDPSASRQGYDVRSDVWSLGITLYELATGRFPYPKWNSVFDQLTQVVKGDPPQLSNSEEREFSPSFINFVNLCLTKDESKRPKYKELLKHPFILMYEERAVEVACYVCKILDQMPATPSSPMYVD
Outline: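 Radiometric 33PanQinase assay: kinase, substrate, ATP and compound in standard buffer, 60 min at 30 °C; 33Pi incorporation read by scintillation counting.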

[5] = molecular target: T5, BRaf (Homo sapiens, UniProt P15056); assay: KINOMEscan competition binding assay, BRaf; conditions: ratio PoC (off-target)/PoC (MKK4)
T5 construct: purchased ProQinase GmbH, Freiburg, Germany (33PanQinase Assay Service)
T5 sequence (P15056 whole entry, species assumed): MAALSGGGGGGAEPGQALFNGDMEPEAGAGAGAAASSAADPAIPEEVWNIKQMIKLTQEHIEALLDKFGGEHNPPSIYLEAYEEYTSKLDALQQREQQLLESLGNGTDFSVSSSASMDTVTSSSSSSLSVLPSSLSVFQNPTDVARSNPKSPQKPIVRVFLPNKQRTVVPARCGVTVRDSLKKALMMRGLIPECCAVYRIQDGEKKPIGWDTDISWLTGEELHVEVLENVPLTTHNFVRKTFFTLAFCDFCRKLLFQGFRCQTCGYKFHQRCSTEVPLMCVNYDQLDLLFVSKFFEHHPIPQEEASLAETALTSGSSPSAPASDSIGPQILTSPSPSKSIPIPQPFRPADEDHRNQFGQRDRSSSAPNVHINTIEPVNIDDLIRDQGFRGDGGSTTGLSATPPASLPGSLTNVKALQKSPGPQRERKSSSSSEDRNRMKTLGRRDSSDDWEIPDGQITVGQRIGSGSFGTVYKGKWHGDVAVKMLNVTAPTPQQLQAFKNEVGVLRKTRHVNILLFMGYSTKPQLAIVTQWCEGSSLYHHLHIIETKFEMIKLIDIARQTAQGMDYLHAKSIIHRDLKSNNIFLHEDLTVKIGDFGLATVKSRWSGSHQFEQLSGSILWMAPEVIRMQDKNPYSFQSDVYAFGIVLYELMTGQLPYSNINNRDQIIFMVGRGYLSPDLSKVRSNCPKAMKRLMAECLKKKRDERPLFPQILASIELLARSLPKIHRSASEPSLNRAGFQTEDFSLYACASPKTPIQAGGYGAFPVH
Outline: (§2)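 DNA-tagged kinases expressed in HEK-293 cells compete between immobilized ligand on blocked beads and test compound at 100 nM; kinase retained on beads quantified by qPCR of the tag.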

[6] = molecular target: T3, MKK7; assay: KINOMEscan competition binding assay, MKK7; design: M1/R419; host or cells: HEK-293; conditions: ratio PoC (off-target)/PoC (MKK4)
Outline: as §2

[7] = molecular target: T5, BRaf; assay: 33PanQinase enzyme assay, BRaf; assay type: biochemical; conditions: ratio IC50(BRaf)/IC50(MKK4)
Outline: as §1

[8] = molecular target: T2, JNK1; assay: KINOMEscan competition binding assay, JNK1; design: M1/Q384; host or cells: HEK-293; conditions: ratio PoC (off-target)/PoC (MKK4)
Outline: as §2
Target sequence in this assay (P45983 1-384 isoform P45983-2): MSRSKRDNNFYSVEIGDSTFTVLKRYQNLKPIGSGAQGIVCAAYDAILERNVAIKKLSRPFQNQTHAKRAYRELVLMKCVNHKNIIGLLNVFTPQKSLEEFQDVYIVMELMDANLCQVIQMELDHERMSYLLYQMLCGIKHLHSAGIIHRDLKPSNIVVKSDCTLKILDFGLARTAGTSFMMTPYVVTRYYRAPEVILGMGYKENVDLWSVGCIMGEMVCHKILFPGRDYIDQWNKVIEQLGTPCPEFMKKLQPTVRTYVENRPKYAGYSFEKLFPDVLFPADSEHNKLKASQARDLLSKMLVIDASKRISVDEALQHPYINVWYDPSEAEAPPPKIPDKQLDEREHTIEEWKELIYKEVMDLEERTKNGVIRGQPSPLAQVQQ

MKK4 [% Ctrl @ 100 nM [1]	Selectivity IVIKK7, IC50(off-target)/IC50(MKK4) [3]	pIC50 [4]	selectivity based on % Ctrl @100 nM vs. Braf [5]	selectivity based on % Ctrl @100 nM vs. MKK7 [6]	Selectivity Braf, IC50(off-target)/IC50(MKK4) [7]	selectivity based on % Ctrl @100 nM vs. JNK1 [8]	SMILES	Selectivity JNK1, IC50(off-target)/IC50(MKK4) [2]
+++ (PoC < 1)	+++ (IC50(off-target)/IC50(MKK4) > 100)	6.00 to 7.00	+++ (Ratio > 100)	+++ (Ratio > 100)	+++ (IC50(off-target)/IC50(MKK4) > 100)	+++ (Ratio > 100)	O=C(c1ccc(F)c(NS(=O)(=O)CCC(F)(F)F)c1F)c1c[nH]c2ncc(-c3cnc(N4CCCCC4)nc3)cc12 [Example 181, N-(2,6-difluoro-3-(5-(2-(piperidin-1-yl)pyrimidin-5-yl)-1H-pyrrolo[2,3-b]pyridine-3-carbonyl)phenyl)-3,3,3-trifluoropropane-1-sulfonamide]	++ (100 ≥ IC50(off-target)/IC50(MKK4) > 10)
+++ (PoC < 1)	+++ (IC50(off-target)/IC50(MKK4) > 100)	> 7.00	+++ (Ratio > 100)	+++ (Ratio > 100)	+++ (IC50(off-target)/IC50(MKK4) > 100)	+++ (Ratio > 100)	O=C(c1ccc(F)c(NS(=O)(=O)CCC(F)(F)F)c1F)c1c[nH]c2ncc(-c3cnc(NC4CC4)nc3)cc12 [Example 182]	+++ (IC50(off-target)/IC50(MKK4) > 100)
+++ (PoC < 1)	+++ (IC50(off-target)/IC50(MKK4) > 100)	6.00 to 7.00	+++ (Ratio > 100)	+++ (Ratio > 100)	+++ (IC50(off-target)/IC50(MKK4) > 100)	+++ (Ratio > 100)	CCCS(=O)(=O)Nc1c(F)ccc(C(=O)c2c[nH]c3ncc(-c4cnc(C(F)(F)F)nc4)cc23)c1F [Example 184, N-(2,6-difluoro-3-(5-(2-(trifluoromethyl)pyrimidin-5-yl)-1H-pyrrolo[2,3-b]pyridine-3-carbonyl)phenyl)propane-1-sulfonamide]	++ (100 ≥ IC50(off-target)/IC50(MKK4) > 10)
+++ (PoC < 1)	+++ (IC50(off-target)/IC50(MKK4) > 100)	6.00 to 7.00	+++ (Ratio > 100)	+++ (Ratio > 100)	+++ (IC50(off-target)/IC50(MKK4) > 100)	+++ (Ratio > 100)	CCCS(=O)(=O)Nc1c(F)ccc(C(=O)c2c[nH]c3ncc(-c4cnc(Cl)cn4)cc23)c1F [Example 211, N-(3-(5-(5-chloropyrazin-2-yl)-1H-pyrrolo[2,3-b]pyridine-3-carbonyl)-2,6-difluorophenyl)propane-1-sulfonamide]	++ (100 ≥ IC50(off-target)/IC50(MKK4) > 10)
+++ (PoC < 1)	+++ (IC50(off-target)/IC50(MKK4) > 100)	> 7.00	+++ (Ratio > 100)	+++ (Ratio > 100)	+++ (IC50(off-target)/IC50(MKK4) > 100)	+++ (Ratio > 100)	CCCS(=O)(=O)Nc1c(F)ccc(C(=O)c2c[nH]c3ncc(-c4ccc(C)nc4)cc23)c1F [Example 229, N-(2,6-difluoro-3-(5-(6-methylpyridin-3-yl)-1H-pyrrolo[2,3-b]pyridine-3-carbonyl)phenyl)propane-1-sulfonamide]	+++ (IC50(off-target)/IC50(MKK4) > 100)
+++ (PoC < 1)	+++ (IC50(off-target)/IC50(MKK4) > 100)	> 7.00	+++ (Ratio > 100)	+++ (Ratio > 100)	+++ (IC50(off-target)/IC50(MKK4) > 100)	+++ (Ratio > 100)	CCCS(=O)(=O)Nc1c(F)ccc(C(=O)c2c[nH]c3ncc(-c4ccc(C(F)(F)F)nc4)cc23)c1F [Example 230, N-(2,6-difluoro-3-(5-(6-(trifluoromethyl)pyridin-3-yl)-1H-pyrrolo[2,3-b]pyridine-3-carbonyl)phenyl)propane-1-sulfonamide]	+++ (IC50(off-target)/IC50(MKK4) > 100)
